Experimental data reported in patent US4118561A, “7-(Substituted)-7H-pyrrolo[3,2-f]quinazoline-1,3-diamines” (priority 1977, dated 1978).

Tested on: Plasmodium berghei KBG 173
Test: Antimalarial blood schizonticidal test in mice
Assay type: in vivo, Plasmodium berghei (infected ICR/HA Swiss mice)
Set-up: ΔMST (increase in mean survival time): unit: days
Settings: s.c.
Outline: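 Single s.c. doses (peanut oil vehicle, graded levels) given 72 h after i.p. inoculation of young Swiss mice with P. berghei KBG 173 blood (4 × 10^7 parasitized cells). Activity judged by cures (alive at 60 days) or significant mean survival gain over untreated controls, without drug-related deaths.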

N#Cc1ccc(Cn2ccc3c4c(N)nc(N)nc4ccc32)cc1 [Example 16, 7-[(4-cyanophenyl)methyl]-7H-pyrrolo[3,2-f]-quinazoline-1,3-diamine]
minimal effective dose (Plasmodium berghei, sc, 1440 h, single dose, 60-day survivors, read-out: Min. Curing Dose): 5 mg/kg
Cure/Treat at Min. Curing Dose (at the Min. Curing Dose, 60-day survivors): 1/5
ΔMST (increase in mean survival time) (dose 10 mg. per kg.): 8.4
